Experiments:
Human LBAT = molecular target: T1, Human LBAT (Homo sapiens, UniProt Q14973); test: LBAT (h/m) assay, human LBAT-overexpressing cells, 3H-taurocholic acid uptake; type: cell-based; conditions: 0.3 μM 3H-taurocholic acid and 7.5 μM cold taurocholic acid, 20 minutes, read-out: hLBAT IC50
T1 construct: expressed in transfected cells; Geneticin-selected
T1 sequence (Q14973 1-349): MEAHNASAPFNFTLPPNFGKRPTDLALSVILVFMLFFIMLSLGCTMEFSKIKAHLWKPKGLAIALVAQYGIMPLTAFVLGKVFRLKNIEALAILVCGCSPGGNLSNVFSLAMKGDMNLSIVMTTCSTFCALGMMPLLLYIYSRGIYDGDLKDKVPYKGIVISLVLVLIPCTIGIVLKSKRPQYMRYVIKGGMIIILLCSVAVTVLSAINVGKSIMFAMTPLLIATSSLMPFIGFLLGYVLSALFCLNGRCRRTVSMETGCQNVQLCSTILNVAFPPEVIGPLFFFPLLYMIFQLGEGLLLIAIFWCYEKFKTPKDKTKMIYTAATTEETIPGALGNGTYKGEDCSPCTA
Method: LBAT (h/m) Assay Protocol
20,000 cells (Human or Mouse LBAT-overexpressing cells) were seeded in 96-wells plate (Corning CLS3809) in 100 μL MEM-alpha medium (Gibco 12571-063) supplemented with 10% FBS (Gibco 10438026) containing Geneticin (Gibco 10131-027) (1 mg/mL) and incubated at 37° C. in 5% CO2 for 24 hours. After incubation, media was decanted from the wells and cells were washed two times with 300 μL of basal MEM-alpha medium (FBS-free). After decanting basal MEM-alpha medium each time, plates were tapped against paper towel to ensure maximum removal of residual media.
For human LBAT, incubation mix was prepared by adding test inhibitor dilutions (3-fold serial dilution in DMSO (Sigma D2650), 10 points) in MEM-alpha (without FBS) containing 0.3 μM 3H-taurocholic acid (ARC ART-1368) and 7.5 μM cold taurocholic acid (Sigma T4009) (maintaining 0.2% final DMSO concentration). For mouse LBAT, incubation mix was prepared by adding test inhibitor dilutions (3-fold serial dilution in DMSO, 10 points) in MEM-alpha (without FBS) containing 0.3 μM 3H-taurocholic acid and 25 μM cold taurocholic acid maintaining 0.2% final DMSO concentration). 50 μL of incubation mix containing test inhibitors was then added to the wells (in duplicate) and the plates were incubated for 20 minutes in a CO2 incubator at 37° C. After incubation, the reaction was stopped by keeping the plates on ice water mix for 2-3 minutes and then the incubation mix was aspirated completely from the wells. The wells were washed two times with 250 μL of chilled unlabelled 1 mM taurocholic acid dissolved in HEPES (Gibco 15630080)-buffered (10 mM) HBSS (Gibco 14175079) (pH 7.4). The plates were tapped against a paper towel after every wash to ensure maximum removal of blocking buffer. 100 μL of MicroScint-20 (PerkinElmer 6013621) was added to the wells and kept overnight at room temperature before reading the plates in TopCount NXT™ Microplate Scintillation and Luminescence Counter from PerkinElmer under 3H Test protocol (set at 120 seconds reading time per well, with normal plate orientation).
(§1) Preparation of Test Compound Dilutions
(§2) All test compounds were provided in powder form at room temperature. 10 mM DMSO stocks of the test compounds were prepared, aliquoted and stored at −20° C. From the 10 mM DMSO stock of the compounds, a 3-fold serial dilution in DMSO was prepared to get a total of 10 dilutions of the test compounds. 0.5 μL of this dilution in DMSO was added to 250 μL of FBS-free basal media containing 3H-taurocholic acid and cold taurocholic acid to prepare the incubation mixture.

Human IBAT = molecular target: T2, Human IBAT (Homo sapiens, UniProt Q12908); test: IBAT (h/m) assay, human IBAT-overexpressing cells, 3H-taurocholic acid uptake; type: cell-based; conditions: 0.25 μM 3H-taurocholic acid and 5 μM cold taurocholic acid, 20 minutes, read-out: hIBAT IC50
T2 construct: expressed in transfected cells; Puromycin-selected
T2 sequence (Q12908 1-348): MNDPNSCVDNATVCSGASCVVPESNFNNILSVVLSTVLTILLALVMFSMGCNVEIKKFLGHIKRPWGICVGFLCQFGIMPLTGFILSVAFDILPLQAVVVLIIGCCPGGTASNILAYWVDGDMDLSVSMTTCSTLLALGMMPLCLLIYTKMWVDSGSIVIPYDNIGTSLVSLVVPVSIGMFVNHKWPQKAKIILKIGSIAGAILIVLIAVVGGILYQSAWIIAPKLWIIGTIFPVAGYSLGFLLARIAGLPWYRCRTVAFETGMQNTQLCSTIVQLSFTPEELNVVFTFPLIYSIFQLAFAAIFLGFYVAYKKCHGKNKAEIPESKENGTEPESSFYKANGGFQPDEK
Method: IBAT (h/m) Assay Protocol
10,000 cells (Human or Mouse IBAT-overexpressing cells) were seeded in 96-wells plate (Corning CLS3809) in 200 μL MEM-alpha medium (Gibco 12571-063) supplemented with 10% FBS (Gibco 10438026) containing Puromycin (Gibco A1113803) (10 μg/mL) and incubated at 37° C. in 5% CO2 for 48 hours. After incubation, media was decanted from the wells and cells were washed two times with 300 μL of basal MEM-alpha medium (FBS-free). After decanting basal MEM-alpha medium each time, plates were tapped against paper towel to ensure maximum removal of residual media. Test inhibitor dilutions (highest test concentration being 10 μM, 3-fold serial dilution, 10 points) prepared in DMSO (Sigma D2650) were added in incubation mix (maintaining 0.2% final DMSO concentration) containing 0.25 μM 3H-taurocholic acid (ARC ART-1368) and 5 μM of cold taurocholic acid (Sigma T4009). 50 μL of incubation mix containing test inhibitors was then added to the wells (in duplicate) and the plates were incubated for 20 minutes in a CO2 incubator at 37° C. After incubation, the reaction was stopped by keeping the plates on ice water mix for 2-3 minutes and then the incubation mix was aspirated completely from the wells. The wells were washed two times with 250 μL of chilled unlabelled 1 mM taurocholic acid dissolved in HEPES (Gibco 15630080)-buffered (10 mM) HBSS (Gibco 14175079) (pH 7.4). The plates were tapped against a paper towel after every wash to ensure maximum removal of blocking buffer.
100 μL of MicroScint-20 (PerkinElmer 6013621) was added to the wells and kept overnight at room temperature before reading the plates in TopCount NXT™ Microplate Scintillation and Luminescence Counter from PerkinElmer under 3H Test protocol (set at 120 seconds reading time per well).
as §1, §2

| Structure (SMILES) | IC50 (Human LBAT) | IC50 (Human IBAT) |
| --- | --- | --- |
| CCCCC1(C)CN(c2ccccc2)c2cc(SC)c(OCC(C)(O)C(=O)O)cc2S(=O)(=O)C1 (single isomer, unassigned) [33, diastereomer 2] | 1410 nM | 45 nM |
| CCCCC1(CC)CN(c2ccccc2)c2cc(SC)c(OCC(C)(F)C(=O)O)cc2S(=O)(=O)C1 (single isomer, unassigned) [35, diastereomer 2] | 138 nM | 13 nM |
| CCCCC1(CC)CN(c2ccccc2)c2cc(SC)c(OCC(O)C(=O)O)cc2S(=O)(=O)C1 (single isomer, unassigned) [40, diastereomer 1] | 1370 nM | 241 nM |
| CCCCC1(CC)CN(c2ccccc2)c2cc(SC)c(OCC(O)C(=O)O)cc2S(=O)(=O)C1 (single isomer, unassigned) [40, diastereomer 2] | 513 nM | 24 nM |
| CCCCC1(CC)CN(c2ccccc2)c2cc(SC)c(OCC(O)C(=O)O)cc2S(=O)(=O)C1 (single isomer, unassigned) [40, diastereomer 3] | 665 nM | 2 nM |
| CCCCC1(CC)CN(c2ccccc2)c2cc(SC)c(OCC(O)C(=O)O)cc2S(=O)(=O)C1 (single isomer, unassigned) [40, diastereomer 4] | 389 nM | 10 nM |
| CCCCC1(CC)CN(c2ccc(F)cc2)c2cc(SC)c(OCC(O)C(=O)O)cc2S(=O)(=O)C1 (single isomer, unassigned) [42, diastereomer 1] | 1290 nM | 19 nM |
| CCCCC1(CC)CN(c2ccc(F)cc2)c2cc(SC)c(OCC(O)C(=O)O)cc2S(=O)(=O)C1 (single isomer, unassigned) [42, diastereomer 2] | 2310 nM | 36 nM |
| CCCCC1(CC)CN(c2ccc(F)cc2)c2cc(SC)c(OCC(O)C(=O)O)cc2S(=O)(=O)C1 (single isomer, unassigned) [42, diastereomer 3] | 892 nM | 0.5 nM |
| CCCCC1(CC)CN(c2ccc(F)cc2)c2cc(SC)c(OCC(O)C(=O)O)cc2S(=O)(=O)C1 (single isomer, unassigned) [42, diastereomer 4] | 689 nM | 1 nM |
| CCCCC1(CC)CN(c2ccccc2)c2cc(OC)c(OCCC(=O)O)cc2S(=O)(=O)C1 (single isomer, unassigned) [44, enantiomer 1] | > 20000 nM | 46 nM |
| CCCCC1(CC)CN(c2ccccc2)c2cc(OC)c(OCCC(=O)O)cc2S(=O)(=O)C1 (single isomer, unassigned) [44, enantiomer 2] | > 23000 nM | 392 nM |
| CCCCC1(CC)CN(c2ccccc2)c2cc(SC)c(OCC(C)(O)C(=O)O)cc2S(=O)(=O)C1 (single isomer, unassigned) [48, diastereomer 1] | 1190 nM | 56 nM |
| CCCCC1(CC)CN(c2ccccc2)c2cc(Br)c(OCCC(=O)O)cc2S(=O)(=O)C1 (single isomer, unassigned) [Example 3, 3-((7-bromo-3-butyl-3-ethyl-1,1-dioxido-5-phenyl-2,3,4,5-tetrahydro-1,5-benzothiazepin-8-yl)oxy)propanoic acid] | 837 nM | 241 nM |
| CCCCC1(CC)CN(c2ccccc2)c2cc(Cl)c(OCCC(=O)O)cc2S(=O)(=O)C1 (single isomer, unassigned) [Example 7, 3-((3-butyl-7-chloro-3-ethyl-1,1-dioxido-5-phenyl-2,3,4,5-tetrahydro-1,5-benzothiazepin-8-yl)oxy)propanoic acid] | 969 nM | 418 nM |
| CCCCC1(CC)CN(c2ccccc2)c2cc(SC)c(OCCC(=O)O)cc2S(=O)(=O)C1 (single isomer, unassigned) [Example 14, 3-((3-butyl-3-ethyl-7-(methylthio)-1,1-dioxido-5-phenyl-2,3,4,5-tetrahydro-1,5-benzothiazepin-8-yl)oxy)propanoic acid] | 764 nM | 58 nM |
| CCCCC1(CCCC)CN(c2ccccc2)c2cc(SC)c(OCC(C)(O)C(=O)O)cc2S(=O)(=O)C1 (single isomer, unassigned) [Example 20, 3-((3,3-dibutyl-7-(methylthio)-1,1-dioxido-5-phenyl-2,3,4,5-tetrahydro-1,5-benzothiazepin-8-yl)oxy)-2-hydroxy-2-methylpropanoic acid] | 1390 nM | 42 nM |
| CCCCC1(CCCC)CN(c2ccccc2)c2cc(SC)c(OCC(C)(O)C(=O)O)cc2S(=O)(=O)C1 (single isomer, unassigned) [Example 21, 3-((3,3-dibutyl-7-(methylthio)-1,1-dioxido-5-phenyl-2,3,4,5-tetrahydro-1,5-benzothiazepin-8-yl)oxy)-2-hydroxy-2-methylpropanoic acid] | 608 nM | 19 nM |
| CCCCC1(C)CN(c2ccccc2)c2cc(SC)c(OCCC(=O)O)cc2S(=O)(=O)C1 (single isomer, unassigned) [Example 23, 3-((3-butyl-3-methyl-7-(methylthio)-1,1-dioxido-5-phenyl-2,3,4,5-tetrahydro-1,5-benzothiazepin-8-yl)oxy)propanoic acid] | 182 nM | 334 nM |
| CCCCC1(C)CN(c2ccccc2)c2cc(SC)c(OC[C@H](O)C(=O)O)cc2S(=O)(=O)C1 (single isomer, unassigned) [Example 32, 3-((3-butyl-3-methyl-7-(methylthio)-1,1-dioxido-5-phenyl-2,3,4,5-tetrahydro-1,5-benzothiazepin-8-yl)oxy)-2-hydroxypropanoic acid] | 2260 nM | 8 nM |
| CCCCC1(CCCC)CN(c2ccccc2)c2cc(Cl)c(OCCC(=O)O)cc2S(=O)(=O)C1 [Example 8, 3-((3,3-Dibutyl-7-chloro-1,1-dioxido-5-phenyl-2,3,4,5-tetrahydro-1,5-benzothiazepin-8-yl)oxy)propanoic acid] | 376 nM | 74 nM |
